Laboratory results reported in patent US20260356860A1, “2-SUBSTITUTED 3,4A,5,7,8,8A-HEXAHYDRO-4H-THIOPYRANO[4,3-DJPYRIMIDIN-4-ONES FOR WOUND TREATMENT” (priority 2022, published 2026).
“And” between values parts separate entries of the source, which are not always exact repeats. Equal entries are not always repeated.

Key:
[1] = test system: P. aeruginosa (derived from ATCC ® 9027 ™); test: Bacteriostasis, log reduction; format: cell-based; conditions: P. aeruginosa ATCC 9027
[2] = test system: E. faecalis (derived from ATCC ® 19433 ™); test: Bacteriostasis, log reduction; format: cell-based; conditions: E. faecalis ATCC 19433
[3] = test system: E. coli 0157:H7 (derived from ATCC ® 12900 ™); test: Bacteriostasis, log reduction; format: cell-based; conditions: E. coli 0157:H7 ATCC 12900
[4] = test system: K. pneumoniae (derived from ATCC ® 10031 ™); test: Bacteriostasis, log reduction; format: cell-based; conditions: K. pneumoniae ATCC 10031
[5] = test system: S. aureus (MRSA) (derived from ATCC ® 33593 ™); test: Bacteriostasis, log reduction; format: cell-based; conditions: for Average result / Log Reduction / Log Value: S. aureus (MRSA) ATCC 33593
new porcine skin = test: Elasticity of healed wound; format: in vivo; conditions: day 21; for Elasticity, Mean / Elasticity, individual values: topical
Experimental: Additional tests were performed including elasticity (Table 12); max force (Table 13); tensile strength (strain) (Table 14); energy peak (Table 15); rete-ridge formation; and collagen organization (plane polarized light) (FIG. 24) of the healed wound sites, described as follows.
A is saline (control), B is serum formulation (vehicle), C is GO-HA (vehicle), D is Compound 1; E is Compound 1+GO-HA; F is Compound 8; G is Compound 8+GO-HA; H is Compound 10; and J is Compound 10+GO-HA.
Elasticity (N/mm) is the ability of a material to return to its original shape after stress has been removed. All compounds of Formula (I) tested with or without GO-HA ranged from 33% to 99% improvement in elasticity compared to the saline control.

Row | Structure (SMILES) | Average result ([1]; 24 h) | Log Reduction ([1]; 24 h) | Log Value ([1]; 24 h) | Average result ([1]; 72 h) | Log Reduction ([1]; 72 h) | Log Value ([1]; 72 h) | Average result ([2]; 24 h) | Log Reduction ([2]; 24 h) | Log Value ([2]; 24 h) | Average result ([2]; 72 h) | Log Reduction ([2]; 72 h) | Log Value ([2]; 72 h) | Average result ([3]; 24 h) | Log Reduction ([3]; 24 h) | Average result ([5]; 24 h) | Log Reduction ([5]; 24 h) | Log Value ([5]; 24 h) | Average result ([5]; 72 h) | Log Reduction ([5]; 72 h) | Log Value ([5]; 72 h) | other results
1 | O=c1[nH]c(-c2ccc(B(O)O)cc2)nc2c1CSCC2 [Compound 1, (4-(4-oxo-3,5,7,8-tetrahydro-4H-thiopyrano[4,3-d]pyrimidin-2-yl)phenyl)boronic acid] | <200 | >3.0 | <2.3 | <200 | >3.0 | <2.3 | 1.1 × 10^3 | 1.8 | 3.0 | 1.1 × 10^4 | 0.7 | 4.1 | 5.5 × 10^3 | 0.5 | 9.3 × 10^3 | 0.6 | 4.0 | 4.0 × 10^4 | No | 4.6 | Log Value ([3]; 24 h): 3.7; Average result ([3]; 72 h): <200; Log Reduction ([3]; 72 h): >1.9; Log Value ([3]; 72 h): <2.3; Average result ([4]; 24 h): 1.1 × 10^3; Log Reduction ([4]; 24 h): 1.8; Log Value ([4]; 24 h): 3.0; Average result ([4]; 72 h): <200; Log Reduction ([4]; 72 h): >2.5; Log Value ([4]; 72 h): <2.3; effect on MRSA growth ([5]; 72 h, test 1): did not affect MRSA growth; Elasticity, Mean (new porcine skin): 37.628 N/mm; Elasticity, individual values (new porcine skin): 39.593 N/mm and 27.299 N/mm and 33.002 N/mm and 50.617 N/mm
2 | O=c1[nH]c(-c2ccc(-c3ccc(Br)nc3)cc2)nc2c1CSCC2 [Compound 7, 2-(4-(6-bromopyridin-3-yl)phenyl)-3,5,7,8-tetrahydro-4H-thiopyrano [4,3-d]pyrimidin-4-one] |  |  |  |  |  |  | 9.3 × 10^5 | No | 6.0 | 6.9 × 10^5 | No | 5.8 |  |  | 2.7 × 10^3 | 1.2 | 3.4 | 1.4 × 10^5 | No | 5.1 | 
3 | CC(C)(OCCO)c1ccc(-c2nc3c(c(=O)[nH]2)CSCC3)cc1 [Compound 8, 2-(4-(2-(2-hydroxyethoxy)propan-2-yl)phenyl)-3,5,7,8-tetrahydro-4H-thiopyrano[4,3-d]pyrimidin-4-one] |  |  |  |  |  |  | 3.4 × 10^5 | No | 5.5 | 6.5 × 10^4 | No | 4.8 |  |  | 3.3 × 10^6 | No | 6.5 | 1.0 × 10^6 | No | 6.0 | Elasticity, Mean (new porcine skin): 40.080 N/mm; Elasticity, individual values (new porcine skin): 47.748 N/mm and 22.23 N/mm and 55.607 N/mm and 46.485 N/mm and 28.331 N/mm
4 | O=c1[nH]c(-c2ccc(-c3ccc(B(O)O)cc3)cc2)nc2c1CSCC2 [Compound 10, (4′-(4-oxo-3,5,7,8-tetrahydro-4H-thiopyrano[4,3-d]pyrimidin-2-yl)-[1,1′-biphenyl]-4-yl)boronic acid] | <200 | >3.0 | <2.3 | <200 | >3.0 | <2.3 | 2.9 × 10^4 | 0.3 | 4.5 | <200 | >2.5 | <2.3 | <200 | >1.9 | 3.1 × 10^4 | 0.1 | 4.5 | 2.7 × 10^3 | 1.2 | 3.4 | Log Value ([3]; 24 h): <2.3; Average result ([3]; 72 h): <200; Log Reduction ([3]; 72 h): >1.9; Log Value ([3]; 72 h): <2.3; Average result ([4]; 24 h): <200; Log Reduction ([4]; 24 h): >2.5; Log Value ([4]; 24 h): <2.3; Average result ([4]; 72 h): <200; Log Reduction ([4]; 72 h): >2.5; Log Value ([4]; 72 h): <2.3; improvement in elasticity compared to the saline control (new porcine skin): 91%; Elasticity, Mean (new porcine skin): 53.682 N/mm; Elasticity, individual values (new porcine skin): 43.004 N/mm and 52.568 N/mm and 74.191 N/mm and 44.962 N/mm
5 | COC(=O)NCCOC(C)(C)c1ccc(-c2nc3c(c(=O)[nH]2)CSCC3)cc1 [Compound 18, methyl (2-((2-(4-(4-oxo-3,5,7,8-tetrahydro-4H-thiopyrano[4,3-d]pyrimidin-2-yl)phenyl)propan-2-yl)oxy)ethyl)carbamate] | <200 | >2.5 | <2.3 | <200 | >2.5 | <2.3 | 2.7 × 10^5 | No | 5.4 | 1.9 × 10^5 | No | 5.3 | <200 | >1.9 | 1.5 × 10^3 | 1.6 | 3.2 | <200 | >2.5 | <2.3 | Log Value ([3]; 24 h): <2.3; Average result ([3]; 72 h): <200; Log Reduction ([3]; 72 h): >1.9; Log Value ([3]; 72 h): <2.3; Average result ([4]; 24 h): <200; Log Reduction ([4]; 24 h): >2.5; Log Value ([4]; 24 h): <2.3; Average result ([4]; 72 h): <200; Log Reduction ([4]; 72 h): >2.5; Log Value ([4]; 72 h): <2.3
